Experimental data: patent publication US7781393B2, “Methods for inhibiting tumor cell growth” (Dana-Farber Cancer Institute, Inc., priority 2004, dated 2010)

What was measured:
Assay type in all cases: cell-based, human
[1] = tested on: SW579 papillary thyroid carcinoma cells; experiment: VEGF ELISA, IGF-1-stimulated thyroid carcinoma cells; settings: 750 nM; IGF-1 200 ng/mL in serum-free medium
Description: Flow cytometric analyses for IGF-1R, and IGF-2R were performed as previously described on a EPICS-XL-MCL flow cytometer (Beckman Coulter). Previously described protocols were applied for immunoblotting analyses; TRAP telomerase activity assay; 20S proteasome chymotryptic activity assay; DNA binding activity ELISAs for quantitative assessments of NF-κB and HIF-1a transcriptional activities. VEGF and IGF-1 ELISAs were performed according to manufacturer's instructions (R&D Systems, Minneapolis, Minn.).

[2] = tested on: 58 hematologic and solid tumor cell lines; experiment: MTT colorimetric survival assay, panel of hematologic and solid tumor cell lines; settings: all cell lines; 0-10 μM for 72 hours
BM stromal cells (BMSCs) = experiment: Viability of bone marrow stromal cells (MTT); settings: 500 nM for 72 hrs
Description: Primary MM patient samples were freshly isolated from bone marrow aspirates from patients undergoing diagnostic or restaging bone marrow aspirates under an IRB-approved protocol. MM cells were purified using custom-made RosetteSep cocktail of monoclonal antibodies (mAb's) (StemCell Technologies Inc, Vancouver, Canada) for negative selection of CD138^+ MM cells. The CD138^− fraction of the MM cell purification process was cultured in 20% FBS-supplemented media for isolation of the adherent bone marrow stromal cells. Peripheral blood B cells were isolated by ficoll-density centrifugation of peripheral blood samples from MM patients. […] […] At the end of each treatment, cells were incubated with 1 mg/ml MTT for 4 hours at 37° C.; a mixture of isopropanol and 1N HCl (23:2, v/v) was then added under vigorous pipetting to dissolve the formazan crystals. Dye absorbance (A) in viable cells was measured at 570 nm, with 630 nm as a reference wavelength. Cell survival was estimated as a percentage of the value of untreated controls. All experiments were repeated at least three times, and each experimental condition was repeated at least in quadruplicate wells in each experiment.

MM cells = experiment: Gene expression and proteomic profiling of IGF-1R inhibition; settings: expression profiling, proteomic analyses, confirmatory assays
Description: Subsequent analysis of scanned image output files were analyzed with Affymetrix GeneChip Microarray Analysis Suite 5.0 software (Affymetrix), normalized and analyzed by hierarchical clustering, functional clustering and relevance network algorithms, as in previous studies. High-throughput global proteomic analysis of the signaling state of IGF-1R-inhibitor-treated MM cells was performed by multiplex-immunoblotting arrays using the KPKS-1.0 and KPSS-1.0 platforms, as previously described (Mitsiades C S et al. Semin Oncol. April 2003; 30(2): 156-60 and Mitsiades N et al. Blood. Mar. 15, 2003; 101(6): 2377-80).
Total RNA was extracted and purified with the Qiagen RNeasy kit (Qiagen, San Diego, Calif.). Five micrograms of total RNA was used in the first-strand cDNA synthesis with T7-d(T)24 primer ([…]-(dT)24) (SEQ ID NO: 1) and Superscript II (GIBCO-BRL, Rockville, Md.). The second-strand cDNA synthesis was carried out at 16° C. by adding Escherichia coli DNA ligase, E. coli DNA polymerase I, and RNase H to the reaction, followed by T4 DNA polymerase to blunt the ends of newly synthesized cDNA. The cDNA was purified through phenol/chloroform and ethanol precipitation. […] Scanned image output files were visually examined for major chip defects and hybridization artifacts and then analyzed with Affymetrix GeneChip® (array) Microarray Analysis Suite 5.0 software (Affymetrix). […]

Nc1ncnc2c1c(-c1cccc(OCc3ccccc3)c1)cn2[C@H]1C[C@H](CN2CCCC2)C1 [ADW-742, trans-5-(3-benzyloxy-phenyl)-7-(3-pyrrolidin-1-ylmethyl-cyclobutyl)-7H-pyrrolo[2,3-d]pyrimidin-4-ylamine]
IGF-1-induced secretion of VEGF [1]: suppresses | inhibition of serum-induced cell growth [2]: Dose-dependent inhibition | viability of BM stromal cells (BM stromal cells (BMSCs)): does not significantly affect | proliferative/anti-apoptotic molecular events associated with exposure to IGF-1 or serum (MM cells): suppressed
